The target of this test is T1, endothelial lipase (EL) (Homo sapiens, UniProt Q9Y5X9).
T1 construct: EL is released as secretory protein in high concentration into cell culture medium (conditioned medium) by recombinant cell lines (CHO, HEK293); made in house; host or cells: recombinant cell lines (CHO, HEK293); concentrated conditioned medium used as enzyme solution
T1 sequence (Q9Y5X9 21-500): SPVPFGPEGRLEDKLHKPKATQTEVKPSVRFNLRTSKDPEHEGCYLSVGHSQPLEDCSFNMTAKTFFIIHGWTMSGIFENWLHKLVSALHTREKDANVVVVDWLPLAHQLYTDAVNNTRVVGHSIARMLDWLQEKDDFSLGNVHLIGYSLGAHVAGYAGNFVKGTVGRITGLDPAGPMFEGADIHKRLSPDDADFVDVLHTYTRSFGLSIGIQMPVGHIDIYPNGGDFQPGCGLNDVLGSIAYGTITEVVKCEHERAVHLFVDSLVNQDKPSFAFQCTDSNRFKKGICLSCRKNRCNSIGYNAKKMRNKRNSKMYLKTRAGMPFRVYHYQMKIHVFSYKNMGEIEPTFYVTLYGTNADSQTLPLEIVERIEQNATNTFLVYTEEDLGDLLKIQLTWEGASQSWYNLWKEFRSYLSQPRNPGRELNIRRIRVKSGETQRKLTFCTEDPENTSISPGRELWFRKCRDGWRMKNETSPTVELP
The experiment in a line: EL inhibition assay (EL activity assay, fluorescent Bodipy phospholipid substrate). In kind it is biochemical. The settings on record: EL from conditioned medium of recombinant cell lines (CHO, HEK293); 37° C., 90 minutes; HPTLC fluorescence read-out. The source says: EL is released as secretory protein in high concentration into cell culture medium (conditioned medium) by recombinant cell lines (CHO, HEK293). This was employed as enzyme solution after concentration.
The phospholipase-specific substrate 1,2-bis(4,4-difluoro-5,7-dimethyl-4-bora-3a,4a-diaza-s-indacene-3-undecanoyl)-sn-glycero-3-phosphocholine, (manufacturer Molecular Probes) was used to characterize the enzymatic activity of endothelial lipase and the effect of inhibitors. Hydrolysis of the A1 ester linkage of this phospholipid by the enzyme liberates a fatty acid labeled with the fluorescent dye Bodipy which can be detected after separation by thin-layer chromatography on an HPTLC plate (silica gel 60, Merck) or directly in the reaction vessel by measuring the fluorescence.
The substrate solution was prepared by 100 μg of 1,2-bis(4,4-difluoro-5,7-dimethyl-4-bora-3a,4a-diaza-s-indacene-3-undecanoyl)-sn-glycero-3-phospho-choline (manufacturer Molecular Probes) being dissolved in 100 μl of DMSO and taken up with 2.4 mg of tripalmitin (Sigma) in 393 μl of chloroform which contained 20 mg/ml DOP-choline (1,2-dioleoyl-sn-glycero-3-phosphocholine). 39.3 μl of this lipid mixture were transferred into a fresh reaction vessel and the solvent was evaporated. The lipid mixture was dissolved in 4 ml of 200 mM TRIS-HCl, 150 mM sodium chloride, pH=7.4, by sonication twice. The subsequent enzymic reaction took place at 37° C. for 90 minutes. For this purpose, 20 μl of the substrate solution were incubated with 2 μl of inhibitor of appropriate concentration (dissolved in 10% DMSO, using 10% DMSO solution for control) and 2 μl of enzyme solution (conditioned medium). Then 4 μl of the assay mixture were loaded onto an HPTLC plate (silica gel 60, Merck), and the liberated fluorescent dye was separated for detection with an eluent (diethyl ether:petroleum benzene:acetic acid [78:22:1]). After evaporation of the eluent, the plate was read in a fluorescence scanner. An increased liberation of the fluorescent dye in the uninhibited reaction was to be observed as a measure of the enzymic activity.
The enzymatic activity was reduced as a function of the inhibitor concentration used. The inhibitor concentration at which a half-maximum enzymatic activity is observed is called IC50.

In the case of `Cc1cc(Cl)nc2c1c(=O)n(C(=O)N[C@H]1CCc3ccccc31)n2C` [Example 13, 6-Chloro-1,4-dimethyl-3-oxo-1,3-dihydropyrazolo[3,4-b]pyridine-2-carboxylic acid (S)-indan-1-ylamide], the concentration for half-maximal inhibition (IC50) is 0.204 µM.
With `Cc1cc(Cl)nc2[nH]n(C(=O)N[C@@H]3CCc4ccccc43)c(=O)c12` [Example 8, 6-Chloro-4-methyl-3-oxo-1,3-dihydropyrazolo[3,4-b]pyridine-2-carboxylic acid (R)-indan-1-ylamide], the IC50 came to 0.091 µM.
As for `Cc1ccccc1CNC(=O)n1c(=O)c2c(C)cc(Cl)nc2n1C` [Example 2, 6-Chloro-1,4-dimethyl-3-oxo-1,3-dihydro-pyrazolo[3,4-b]pyridine-2-carboxylic acid 2-methylbenzylamide], the 50% inhibitory concentration (IC50) worked out at 0.02 µM.
As for `CCCCCCNC(=O)n1oc2nc(C(F)(F)F)ccc2c1=O` [Example 16, 3-Oxo-6-trifluoromethyl-3H-isoxazolo[5,4-b]pyridine-2-carboxylic acid hexylamide], the 50% inhibitory concentration (IC50) was 0.01 µM.
In the case of `Cc1cc(Cl)nc2c1c(=O)n(C(=O)N[C@@H]1CCc3ccccc31)n2C` [Example 14, 6-Chloro-1,4-dimethyl-3-oxo-1,3-dihydropyrazolo[3,4-b]pyridine-2-carboxylic acid (R)-indan-1-ylamide], the concentration for half-maximal inhibition (IC50) came out at 0.008 µM.
As for `CCCCCCNC(=O)n1c(=O)c2c(C)cc(Cl)nc2n1Cc1ccccc1` [Example 15, 1-Benzyl-6-chloro-4-methyl-3-oxo-1,3-dihydropyrazolo[3,4-b]pyridine-2-carboxylic acid hexylamide], the IC50 worked out at 0.057 µM.
Next, `CCCCCCNC(=O)n1c(=O)c2c(C)cc(Cl)nc2n1CCCC` [Example 10, 1-Butyl-6-chloro-4-methyl-3-oxo-1,3-dihydropyrazolo[3,4-b]pyridine-2-carboxylic acid hexylamide]: 0.001 µM.
The value for `Cc1cc(Cl)nc2c1c(=O)n(C(=O)NCCc1cccs1)n2C` [Example 4, 6-Chloro-1,4-dimethyl-3-oxo-1,3-dihydropyrazolo[3,4-b]pyridine-2-carboxylic acid (2-thiophen-2-ylethyl)amide] was 0.019 µM; that for `CCCCCCNC(=O)n1oc2ncccc2c1=O` [Example 6, 3-Oxo-3H-isoxazolo[5,4-b]pyridine-2-carboxylic acid hexylamide] was 0.043 µM.
Next, `Cc1cc(Cl)nc2[nH]n(C(=O)NC3CCCc4ccccc43)c(=O)c12` (stereo not shown) [Example 9, 6-Chloro-4-methyl-3-oxo-1,3-dihydropyrazolo[3,4-b]pyridine-2-carboxylic acid (1,2,3,4-tetrahydronaphthalen-1-yl)amide]: 1.21 µM; `CCCCn1c2nc(Cl)cc(C)c2c(=O)n1C(=O)NCCc1cccs1` [Example 11, 1-Butyl-6-chloro-4-methyl-3-oxo-1,3-dihydropyrazolo[3,4-b]pyridine-2-carboxylic acid (2-thiophen-2-ylethyl)amide]: 1.23 µM.
On to `CCCCCCNC(=O)n1oc2nc(C)ccc2c1=O` [Example 17, 6-Methyl-3-oxo-3H-isoxazolo[5,4-b]pyridine-2-carboxylic acid hexylamide], for which the concentration for half-maximal inhibition (IC50) was found to be 0.011 µM.
For the compound `Cc1cc(Cl)nc2c1c(=O)n(C(=O)NC1CCCc3ccccc31)n2C` (stereo not shown) [Example 12, 6-Chloro-1,4-dimethyl-3-oxo-1,3-dihydropyrazolo[3,4-b]pyridine-2-carboxylic acid (1,2,3,4-tetrahydronaphthalen-1-yl)amide], the half-inhibitory concentration (IC50) stood at 0.029 µM.

The term IC50 denotes the midpoint of a concentration-inhibition curve.

(Values after patent US8148395B2, “Azolopyridin-3-one derivatives as inhibitors of lipases and phospholipases” (Sanofi-Aventis, priority 2006, dated 2012).)
